Laboratory results reported in ChEMBL document CHEMBL1268886, “Evaluation of amide replacements in CCR5 antagonists as a means to increase intrinsic permeability. Part 2: SAR optimization and pharmacokinetic profile of a homologous azacyle series” (Bioorg Med Chem Lett, 2010).

Tests used:
[1] = biological target: C-C chemokine receptor type 5 (Homo sapiens, UniProt P51681); assay: Inhibition of RANTES
[2] = tested on: Human immunodeficiency virus; assay: Antiviral activity against HIV; assay type: functional, organism-based
[3] = (§1) Apparent permeability of the compound from apical to basolateral side in human Caco-2 cell membrane after 21 days; details: Caco-2, Papp
[4] = Metabolic stability in human liver microsomes assessed as intrinsic clearance; assay type: ADME, Microsome
[5] = Cmax in dog at 5 mg/kg, po and 1 mg/kg, iv; assay type: ADME, organism-based, Canis lupus familiaris; details: in vivo
[6] = Oral bioavailability in rat at 10 mg/kg, po and 1 mg/kg, iv; assay type: ADME, organism-based; details: in vivo
[7] = Half life in dog at 1 mg/kg, iv; assay type: ADME, organism-based, Canis lupus familiaris; parameters: dose 1 mg/kg, route intravenous; details: in vivo
[8] = Cmax in rat at 10 mg/kg, po and 1 mg/kg, iv; assay type: ADME, organism-based; details: in vivo
[9] = biological target: Voltage-gated inwardly rectifying potassium channel KCNH2 (Homo sapiens, UniProt Q12809); assay: Inhibition of human ERG
Chain of Voltage-gated inwardly rectifying potassium channel KCNH2 (Q12809 whole entry): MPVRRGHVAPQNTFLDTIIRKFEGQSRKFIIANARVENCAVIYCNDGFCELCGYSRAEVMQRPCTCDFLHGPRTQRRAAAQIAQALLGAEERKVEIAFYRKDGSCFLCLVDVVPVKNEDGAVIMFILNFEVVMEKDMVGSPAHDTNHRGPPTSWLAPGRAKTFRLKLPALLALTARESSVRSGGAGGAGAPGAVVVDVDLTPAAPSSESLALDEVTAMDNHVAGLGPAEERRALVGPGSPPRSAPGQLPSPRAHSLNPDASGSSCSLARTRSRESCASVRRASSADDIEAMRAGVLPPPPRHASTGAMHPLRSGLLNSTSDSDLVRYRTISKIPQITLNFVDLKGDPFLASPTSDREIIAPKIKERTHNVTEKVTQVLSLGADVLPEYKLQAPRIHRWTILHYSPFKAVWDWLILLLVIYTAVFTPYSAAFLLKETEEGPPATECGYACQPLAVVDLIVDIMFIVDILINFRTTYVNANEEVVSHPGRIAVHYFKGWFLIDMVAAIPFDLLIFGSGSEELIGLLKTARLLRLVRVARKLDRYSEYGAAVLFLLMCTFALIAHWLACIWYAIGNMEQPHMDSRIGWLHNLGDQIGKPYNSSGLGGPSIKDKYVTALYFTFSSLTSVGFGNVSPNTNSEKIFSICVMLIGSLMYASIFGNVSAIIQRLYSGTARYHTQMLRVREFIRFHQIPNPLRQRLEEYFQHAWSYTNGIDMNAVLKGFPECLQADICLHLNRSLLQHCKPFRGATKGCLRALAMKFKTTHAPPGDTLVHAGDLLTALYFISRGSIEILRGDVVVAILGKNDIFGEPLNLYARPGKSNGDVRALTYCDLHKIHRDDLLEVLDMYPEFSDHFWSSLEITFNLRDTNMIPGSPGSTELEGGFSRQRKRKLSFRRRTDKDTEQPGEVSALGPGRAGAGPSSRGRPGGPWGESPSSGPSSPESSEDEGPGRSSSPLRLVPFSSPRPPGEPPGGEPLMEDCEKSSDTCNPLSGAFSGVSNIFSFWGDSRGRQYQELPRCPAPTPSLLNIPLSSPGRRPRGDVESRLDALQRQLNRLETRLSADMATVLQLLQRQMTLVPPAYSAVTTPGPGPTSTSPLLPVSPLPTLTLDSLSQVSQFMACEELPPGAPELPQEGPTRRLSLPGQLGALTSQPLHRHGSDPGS

[10] = Metabolic stability in rat liver microsomes assessed as intrinsic clearance; assay type: ADME, Microsome
[11] = Oral bioavailability in dog at 5 mg/kg, po and 1 mg/kg, iv; assay type: ADME, organism-based, Canis lupus familiaris; details: in vivo
[12] = Half life in rat at 1 mg/kg, iv; assay type: ADME, organism-based; parameters: dose 1 mg/kg, route intravenous; details: in vivo
[13] = tested on: Rattus norvegicus; assay: Clearance in rat at 10 mg/kg, po and 1 mg/kg, iv; assay type: ADME, organism-based; details: in vivo
[14] = Metabolic stability in dog liver microsomes assessed as intrinsic clearance; assay type: ADME, Canis lupus familiaris, Microsome
[15] = Clearance in dog at 5 mg/kg, po and 1 mg/kg, iv; assay type: ADME, organism-based, Canis lupus familiaris; details: in vivo
[16] = tested on: Caco-2; assay: as §1; details: caco-2

Chain of C-C chemokine receptor type 5 (P51681 whole entry): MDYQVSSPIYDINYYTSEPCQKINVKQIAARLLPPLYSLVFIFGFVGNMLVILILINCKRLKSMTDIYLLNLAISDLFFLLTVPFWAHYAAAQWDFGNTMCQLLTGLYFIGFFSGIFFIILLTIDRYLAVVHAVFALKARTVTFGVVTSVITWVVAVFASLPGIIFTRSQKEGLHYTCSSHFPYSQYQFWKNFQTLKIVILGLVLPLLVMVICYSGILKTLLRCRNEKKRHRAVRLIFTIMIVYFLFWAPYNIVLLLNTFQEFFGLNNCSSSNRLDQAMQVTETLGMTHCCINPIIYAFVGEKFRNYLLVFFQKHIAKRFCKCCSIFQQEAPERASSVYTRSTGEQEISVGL

| Compound | IC50 [1] [nM] | IC50 ([2]; Human immunodeficiency virus 1) [nM] | further results |
| --- | --- | --- | --- |
| Cc1ncnc(C)c1C(=O)N1C[C@H]2CN(CCC(c3ccccc3)C3CCN(C(=O)NC(C)C)CC3)C[C@H]2C1 (stereo not given in full) | > 500 | – | – |
| Cc1ncnc(C)c1C(=O)N1C[C@H]2CN(CCC(c3ccccc3)C3CCN(S(=O)(=O)C4CC4)CC3)C[C@H]2C1 (stereo not given in full) | 27 | 71 | – |
| Cc1ncnc(C)c1C(=O)N1C[C@H]2CN(CCC(c3ccccc3)C3CCN(S(=O)(=O)C(C)C)CC3)C[C@H]2C1 (stereo not given in full) | 47 | 48 | – |
| Cc1ncnc(C)c1C(=O)N1C[C@H]2CN(CCC(c3ccccc3)C3CCN(S(=O)(=O)C4CCCC4)CC3)C[C@H]2C1 (stereo not given in full) | 23 | 59 | – |
| Cc1ncnc(C)c1C(=O)N1C[C@H]2CN(CCC(c3ccccc3)C3CCN(S(C)(=O)=O)CC3)C[C@H]2C1 (stereo in doubt; 42) | > 500 | – | IC50 [2]: > 5000 nM |
| Cc1ncnc(C)c1C(=O)N1C[C@H]2CN(CCC(c3ccccc3)C3CN(CC(F)(F)F)C3)C[C@H]2C1 (stereo not given in full) | > 500 | – | – |
| Cc1ncnc(C)c1C(=O)N1C[C@H]2CN(CCC(c3ccccc3)C3CN(C(=O)C4CCCC4)C3)C[C@H]2C1 (stereo not given in full) | 207 | – | – |
| Cc1ncnc(C)c1C(=O)N1C[C@H]2CN(CCC(c3ccccc3)C3CN(S(C)(=O)=O)C3)C[C@H]2C1 (stereo not given in full) | 52 | > 625 | – |
| Cc1cc(=O)oc(C)c1C(=O)N1C[C@H]2CN(CCC(c3ccccc3)C3CCN(S(C)(=O)=O)CC3)C[C@H]2C1 (stereo not given in full) | 27 | 37 | – |
| Cc1cc(C#N)nc(C)c1C(=O)N1C[C@H]2CN(CCC(c3ccccc3)C3CCN(S(C)(=O)=O)CC3)C[C@H]2C1 (stereo not given in full) | – | 4 | – |
| Cc1ncnc(C)c1C(=O)N1C[C@H]2CN(CCC(c3ccccc3)C3CCN(CC(F)(F)F)CC3)C[C@H]2C1 (stereo not given in full) | 17 | 64 | – |
| CCC(=O)N1CCC(C(CCN2C[C@@H]3CN(C(=O)c4c(C)ncnc4C)C[C@@H]3C2)c2ccccc2)CC1 (stereo not given in full) | 32 | – | – |
| Cc1ncnc(C)c1C(=O)N1C[C@H]2CN(CCC(c3ccccc3)C3CN(S(=O)(=O)C4CC4)C3)C[C@H]2C1 (stereo not given in full) | 40 | 103 | – |

Second part, led by results:

| IC50 [1] [nM] | IC50 ([2]; Human immunodeficiency virus 1) [nM] | Compound | further results |
| --- | --- | --- | --- |
| 38 | 6 | Cc1ncnc(C)c1C(=O)N1C[C@H]2CN(CCC(c3cccc(F)c3)C3CCN(S(=O)(=O)c4ccccc4)CC3)C[C@H]2C1 (stereo not given in full) | – |
| 25 | 39 | CCS(=O)(=O)N1CCC(C(CCN2C[C@@H]3CN(C(=O)c4c(C)ncnc4C)C[C@@H]3C2)c2ccccc2)CC1 (stereo not given in full) | – |
| 22 | 31 | Cc1ncnc(C)c1C(=O)N1C[C@H]2CN(CCC(c3ccccc3)C3CN(S(=O)(=O)C4CCCC4)C3)C[C@H]2C1 (stereo not given in full) | Papp A→B [3]: 1.4 ×10⁻⁶ cm/s |
| 32 | – | Cc1ncnc(C)c1C(=O)N1C[C@H]2CN(CCC(c3cccc(F)c3)C3CCN(S(C)(=O)=O)CC3)C[C@H]2C1 (stereo in doubt; 43) | Papp A→B [3]: 0.5 ×10⁻⁶ cm/s; microsomal CLint [4]: 60 µL/min/mg; Cmax [5]: 1300 ng/mL; bioavailability [6]: 6.6%; half-life [7]: 240 min; IC50 [2]: 17 nM; Cmax [8]: 110 ng/mL; IC20 [9]: 15.4 µM; microsomal CLint [10]: 40 µL/min/mg; bioavailability [11]: 96%; half-life [12]: 22.2 min; clearance [13]: 40 mL/min/kg; clearance [14]: 18 µL/min/mg; clearance [15]: 31 mL/min/kg |
| > 500 | – | Cc1ncnc(C)c1C(=O)N1C[C@H]2CN(CCC(c3ccccc3)C3CN(C(=O)CC(C)C)C3)C[C@H]2C1 (stereo not given in full) | – |
| 35 | 90 | Cc1ncnc(C)c1C(=O)N1C[C@H]2CN(CCC(c3cc(F)cc(F)c3)C3CN(S(=O)(=O)C4CC4)C3)C[C@H]2C1 (stereo not given in full) | – |
| 68 | – | Cc1ncnc(C)c1C(=O)N1C[C@H]2CN(CCC(c3ccccc3)C3CCN(C(=O)CC(C)C)CC3)C[C@H]2C1 (stereo not given in full) | – |
| 35 | 14 | Cc1ncnc(C)c1C(=O)N1C[C@H]2CN(CCC(c3cccc(F)c3)C3CCN(CC(F)F)CC3)C[C@H]2C1 (stereo not given in full) | – |
| 39 | 156 | Cc1ncnc(C)c1C(=O)N1C[C@H]2CN(CCC(c3cccc(F)c3)C3CN(S(=O)(=O)C4CC4)C3)C[C@H]2C1 (stereo not given in full) | – |
| 34 | – | Cc1ncnc(C)c1C(=O)N1C[C@H]2CN(CCC(c3ccccc3)C3CCN(S(C)(=O)=O)CC3)C[C@H]2C1 (stereo in doubt; 34) | Papp A→B [3]: 0.87 ×10⁻⁶ cm/s; IC50 [2]: 43 nM |
| 25 | – | Cc1ncnc(C)c1C(=O)N1C[C@H]2CN(CCC(c3ccccc3)C3CCN(S(C)(=O)=O)CC3)C[C@H]2C1 (stereo in doubt; 41) | Papp [16]: 0.5 ×10⁻⁶ cm/s; IC50 [2]: 42 nM |
| 44 | 16 | Cc1ncnc(C)c1C(=O)N1C[C@H]2CN(CCC(c3cccc(F)c3)C3CCN(S(C)(=O)=O)CC3)C[C@H]2C1 (stereo in doubt; 35) | – |
| 25 | 20 | Cc1ncnc(C)c1C(=O)N1C[C@H]2CN(CCC(c3cc(F)cc(F)c3)C3CCN(CC(F)F)CC3)C[C@H]2C1 (stereo not given in full) | – |
| > 500 | – | Cc1ncnc(C)c1C(=O)N1C[C@H]2CN(CCC(c3cccc(F)c3)C3CCN(S(C)(=O)=O)CC3)C[C@H]2C1 (stereo in doubt; 44) | – |
| 102 | – | COC(=O)N1CCC(C(CCN2C[C@@H]3CN(C(=O)c4c(C)ncnc4C)C[C@@H]3C2)c2ccccc2)CC1 (stereo not given in full) | – |
| 23 | 100 | Cc1ncnc(C)c1C(=O)N1C[C@H]2CN(CCC(c3ccccc3)C3CN(S(=O)(=O)C(C)C)C3)C[C@H]2C1 (stereo not given in full) | – |
| 48 | 207 | Cc1ncnc(C)c1C(=O)N1C[C@H]2CN(CCC(c3ccccc3)C3CCN(S(=O)(=O)CC(F)(F)F)CC3)C[C@H]2C1 (stereo not given in full) | – |
| 27 | 55 | Cc1ncnc(C)c1C(=O)N1C[C@H]2CN(CCC(c3ccccc3)C3CCN(CC(F)F)CC3)C[C@H]2C1 (stereo not given in full) | – |
| 72 | – | Cc1ncnc(C)c1C(=O)N1C[C@H]2CN(CCC(c3ccccc3)C3CCN(C(=O)C(C)C)CC3)C[C@H]2C1 (stereo not given in full) | – |
